Where a SMILES comes first, the peptide text is derived from it. [ ]: non-standard residue; d: D form. pY = N[C@@H](Cc1ccc(OP(=O)(O)O)cc1)C(=O)O

T1 sequence (O09039 324-446): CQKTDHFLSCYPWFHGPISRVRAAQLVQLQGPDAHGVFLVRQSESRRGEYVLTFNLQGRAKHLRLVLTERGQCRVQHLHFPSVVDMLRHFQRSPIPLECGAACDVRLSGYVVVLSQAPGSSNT

The first experiment addresses T1, LNK SH2 domain (Mus musculus, UniProt O09039).
T1 construct: DNA encoding the mouse LNK SH2 domain (residues 324–446) and an N-terminal NusA; NusA (N, cleaved yes); made in house; host or cells: E. coli (tuner (DE3), BL21(DE3) or C43)
Briefly: SPR competition assay (immobilised IL6ST pY757 peptide). The experiment is classed as binding.
Settings: not given
The method, then:
SH2 domains typically bind ligands with a specific preference for amino acids at the −2 to +5 positions, relative to phosphotyrosine. […] To determine the contribution of individual residues, we made a series of mutations within the JAK2 phosphopeptide, and measured their affinity for the LNK SH2 domain via a surface plasmon resonance (SPR) competition assay (Fig. 3). The LNK SH2 domain was incubated with increasing concentrations of mutant JAK2 pY813 peptides before being passed over a chip coated with an immobilised low affinity phosphopeptide derived from a site on the intracellular domain of the IL-6 receptor, IL6ST. […] The +2 residue was not mutated as the structure indicates its sidechain points towards solvent.
The LNK SH2 domain has been proposed to interact with a suite of phosphorylated sites on various signalling proteins[16]–[19],[32]. […] In addition, binding to the activation loops of JAK2 and IRK, and pY785 of JAK3 were also examined. […] Given that SH2 domains will bind to most phosphorylated sequences to some degree, in line with the literature on SH2 domains and their targets[33] we applied a threshold cut-off of 2000 nM, where an IC50 over this value indicates a physiologically irrelevant interaction.
SPR competition assays were performed on either a Biacore 4000 or 200 (GE Healthcare) in 10 mM HEPES (pH 7.4), 150 mM NaCl, 3.4 mM EDTA, 0.005% Tween 20 using a streptavidin coated chip and were regenerated in 50 mM NaOH, 1 M NaCl. A biotinylated peptide representing the IL6ST pY757 sequence was immobilised to the chip by passing over 1 μg/mL of peptide dissolved in 10 mM HEPES pH 7.4, 150 mM NaCl, 3.4 mM EDA, 0.005% Tween 20. 0.1–0.5 μM of WT LNK SH2 domain was pre-incubated with 2, 1, 0.5, 0.25, 0.125 or 0 mM phosphopeptides before being flowed over the chip for 240–720 seconds at 10–30 μL/min. Data was analysed using Prism, the response of LNK in the presence of the peptide was normalised to an LNK only control and then fitted as an IC50 curve via non-linear regression.
Molecule `CC(C)C[C@H](NC(=O)[C@@H]1CCCN1C(=O)[C@H](CC(C)C)NC(=O)[C@H](Cc1ccc(OP(=O)(O)O)cc1)NC(=O)[C@H](CO)NC(=O)[C@H](Cc1c[nH]cn1)NC(=O)[C@H](CC(N)=O)NC(=O)[C@H](C)N)C(=O)N[C@@H](CO)C(=O)N[C@@H](Cc1ccc(O)cc1)C(=O)N[C@@H](Cc1c[nH]c2ccccc12)C(=O)N[C@@H](CCC(N)=O)C(=O)O` [MPL pY626] (H-ANHS[pY]LPLSYWQ-OH) had an IC50 of 4.89 µM.
As to `CC(C)C[C@H](NC(=O)[C@H](C)NC(=O)[C@H](C)NC(=O)[C@@H](NC(=O)[C@H](CC(=O)O)NC(=O)[C@H](CCCNC(=N)N)NC(=O)[C@H](CC(C)C)NC(=O)[C@H](Cc1ccc(OP(=O)(O)O)cc1)NC(=O)[C@H](CCC(N)=O)NC(=O)CNC(=O)[C@H](CC(C)C)NC(=O)[C@@H](N)C(C)C)[C@@H](C)O)C(=O)O` [MPL pY552] (H-VLGQ[pY]LRDTAAL-OH; N-terminus and C-terminus assumed), the half-maximal inhibitory concentration (IC50) is more than 10 µM.

Staying with this experiment, now noted: mutant vs WT JAK2 pY813 peptide.
On to `CC(C)C[C@H](NC(=O)[C@H](CCC(=O)O)NC(=O)[C@H](Cc1ccc(OP(=O)(O)O)cc1)NC(=O)[C@H](CC(=O)O)NC(=O)[C@@H]1CCCN1C(=O)[C@@H](NC(=O)[C@@H](N)Cc1ccccc1)[C@@H](C)O)C(=O)N[C@@H](Cc1ccccc1)C(=O)N[C@H](C(=O)N[C@@H](CCC(=O)O)C(=O)N[C@@H](CC(N)=O)C(=O)N[C@@H](CC(=O)O)C(=O)O)[C@@H](C)O` [+3F] (H-FTPD[pY]ELFTEND-OH; N-terminus and C-terminus assumed), for which the “fold decrease in affinity” value is recorded as ~ 25 fold.
As to `CC(C)C[C@H](NC(=O)[C@H](CCCNC(=N)N)NC(=O)[C@H](Cc1ccc(OP(=O)(O)O)cc1)NC(=O)[C@H](CC(=O)O)NC(=O)[C@@H]1CCCN1C(=O)[C@@H](NC(=O)[C@@H](N)Cc1ccccc1)[C@@H](C)O)C(=O)N[C@@H](CC(C)C)C(=O)N[C@H](C(=O)N[C@@H](CCC(=O)O)C(=O)N[C@@H](CC(N)=O)C(=O)N[C@@H](CC(=O)O)C(=O)O)[C@@H](C)O` [+1R] (H-FTPD[pY]RLLTEND-OH), the “fold decrease in affinity” value is recorded as more than 80 fold.

The same experiment, now with this note: phosphopeptide competition assay; mean of at least two technical replicates from two, three or four independent experiments; read-out: IC50.
On to `CSCC[C@H](NC(=O)[C@H](CCC(N)=O)NC(=O)[C@H](CC(C)C)NC(=O)[C@H](CCC(N)=O)NC(=O)[C@H](CO)NC(=O)[C@H](CCC(=O)O)NC(=O)[C@H](Cc1ccc(OP(=O)(O)O)cc1)NC(=O)[C@H](CCCNC(=N)N)NC(=O)[C@H](Cc1ccccc1)NC(=O)[C@H](CCC(N)=O)NC(=O)[C@H](CCCCN)NC(=O)[C@H](CCCCN)NC(=O)[C@@H](N)Cc1ccc(O)cc1)C(=O)O` [FLT3 pY572] (H-YKKQFR[pY]ESQLQM-OH; N-terminus and C-terminus assumed), for which the IC50 was more than 10 µM.
Same read-out and setting: for `CC(C)C[C@H](NC(=O)[C@@H]1CCCN1C(=O)[C@@H](N)CC(C)C)C(=O)N[C@@H](CO)C(=O)N[C@@H](Cc1ccc(OP(=O)(O)O)cc1)C(=O)N[C@@H](Cc1c[nH]c2ccccc12)C(=O)N[C@@H](CCC(N)=O)C(=O)N[C@@H](CCC(N)=O)C(=O)N1CCC[C@H]1C(=O)O` [MPL pY631] (H-LPLS[pY]WQQP-OH; N-terminus and C-terminus assumed) the value was more than 10 µM; for `CC(C)C[C@H](NC(=O)[C@H](CS)NC(=O)CNC(=O)[C@H](CC(N)=O)NC(=O)[C@H](CCC(N)=O)NC(=O)[C@H](Cc1ccc(OP(=O)(O)O)cc1)NC(=O)[C@H](CC(C)C)NC(=O)[C@H](Cc1c[nH]c2ccccc12)NC(=O)[C@H](CC(C)C)NC(=O)[C@@H](N)CCC(N)=O)C(=O)N[C@@H](Cc1c[nH]c2ccccc12)C(=O)N[C@@H](Cc1c[nH]c2ccccc12)C(=O)O` [EPOR pY309] (H-QLWL[pY]QNGCLWW-OH; N-terminus and C-terminus assumed), more than 10 µM; for `CC[C@H](C)[C@H](NC(=O)[C@H](Cc1ccc(OP(=O)(O)O)cc1)NC(=O)[C@H](CCC(=O)O)NC(=O)[C@H](Cc1c[nH]cn1)NC(=O)CN)C(=O)N[C@@H](Cc1ccc(O)cc1)C(=O)N[C@H](C(=O)N[C@@H](CC(=O)O)C(=O)N1CCC[C@H]1C(=O)O)C(C)C` [PDGFR pY572] (H-GHE[pY]IYVDP-OH), 3.81 µM.
The same measure, in the same setting: for `CC[C@H](C)[C@H](NC(=O)[C@H](Cc1ccc(O)cc1)NC(=O)[C@@H](NC(=O)[C@H](Cc1ccc(OP(=O)(O)O)cc1)NC(=O)[C@H](CC(N)=O)NC(=O)[C@H](CC(N)=O)NC(=O)CN)C(C)C)C(=O)N[C@@H](CC(=O)O)C(=O)N1CCC[C@H]1C(=O)O` [c-KIT pY568] (H-GNN[pY]VYIDP-OH) the value was 1.93 µM; for `CC[C@H](C)[C@H](NC(=O)[C@H](C)N)C(=O)N[C@@H](CCC(=O)O)C(=O)N[C@H](C(=O)N[C@@H](CC(=O)O)C(=O)N[C@@H](CCCCN)C(=O)N[C@@H](CCC(=O)O)C(=O)N[C@@H](Cc1ccc(OP(=O)(O)O)cc1)C(=O)N[C@@H](Cc1ccc(O)cc1)C(=O)N[C@@H](CCCCN)C(=O)N[C@H](C(=O)N[C@@H](CCCCN)C(=O)N[C@@H](CCC(=O)O)C(=O)N1CCC[C@H]1C(=O)NCC(=O)O)C(C)C)[C@@H](C)O` [JAK2 pY1007] (H-AIETDKE[pY]YKVKEPG-OH; N-terminus and C-terminus assumed), more than 10 µM.
Same read-out and setting: then `CC(C)C[C@H](NC(=O)[C@H](CC(N)=O)NC(=O)[C@@H](NC(=O)[C@H](Cc1ccc(OP(=O)(O)O)cc1)NC(=O)[C@H](CC(=O)O)NC(=O)[C@H](CCCNC(=N)N)NC(=O)[C@@H](N)CCC(=O)O)[C@@H](C)O)C(=O)N1CCC[C@H]1C(=O)N[C@@H](CO)C(=O)O` [c-FMS pY923] (H-ERD[pY]TNLPS-OH; N-terminus and C-terminus assumed), with more than 10 µM; and `C[C@@H](O)[C@H](NC(=O)[C@@H](N)CCC(=O)O)C(=O)N[C@@H](CC(=O)O)C(=O)N[C@@H](Cc1ccc(OP(=O)(O)O)cc1)C(=O)N[C@@H](Cc1ccc(OP(=O)(O)O)cc1)C(=O)N[C@@H](CCCNC(=N)N)C(=O)N[C@@H](CCCCN)C(=O)NCC(=O)NCC(=O)N[C@@H](CCCCN)C(=O)NCC(=O)O` [IRK pY1445/pY1446] (H-ETD[pY][pY]RKGGKG-OH; N-terminus and C-terminus assumed), with more than 10 µM.
For the molecule `NC(=O)C[C@H](NC(=O)[C@H](CCC(=O)O)NC(=O)[C@H](Cc1ccc(O)cc1)NC(=O)[C@@H]1CCCN1C(=O)[C@H](CC(N)=O)NC(=O)[C@H](CO)NC(=O)[C@H](Cc1ccc(OP(=O)(O)O)cc1)NC(=O)[C@@H]1CCCN1C(=O)CNC(=O)[C@H](CC(=O)O)NC(=O)[C@@H](N)CO)C(=O)N[C@@H](CO)C(=O)O` [EPOR pY485] (H-SDGP[pY]SNPYENS-OH; N-terminus and C-terminus assumed), the IC50 was more than 10 µM.
Turning to `CC[C@H](C)[C@H](NC(=O)[C@H](C)N)C(=O)N[C@@H](CCC(=O)O)C(=O)N[C@H](C(=O)N[C@@H](CC(=O)O)C(=O)N[C@@H](CCCCN)C(=O)N[C@@H](CCC(=O)O)C(=O)N[C@@H](Cc1ccc(OP(=O)(O)O)cc1)C(=O)N[C@@H](Cc1ccc(OP(=O)(O)O)cc1)C(=O)N[C@@H](CCCCN)C(=O)N[C@H](C(=O)N[C@@H](CCCCN)C(=O)N[C@@H](CCC(=O)O)C(=O)N1CCC[C@H]1C(=O)NCC(=O)O)C(C)C)[C@@H](C)O` [JAK2 pY1007/pY1008] (H-AIETDKE[pY][pY]KVKEPG-OH; N-terminus and C-terminus assumed), the IC50 is more than 10 µM.
On the same count and under the same terms, then `CSCC[C@H](NC(=O)[C@H](CC(=O)O)NC(=O)[C@H](CCC(N)=O)NC(=O)[C@H](C)N)C(=O)N[C@@H](Cc1ccc(OP(=O)(O)O)cc1)C(=O)N[C@@H](CCCNC(=N)N)C(=O)N[C@@H](CCCNC(=N)N)C(=O)N[C@@H](CC(C)C)C(=O)N[C@@H](CCC(N)=O)C(=O)N1CCC[C@H]1C(=O)N[C@@H](CO)C(=O)N[C@@H](CS)C(=O)O` [MPL pY591] (H-AQDM[pY]RRLQPSC-OH; N-terminus and C-terminus assumed), with more than 10 µM.

As a reminder, the IC50 is the concentration needed to halve the response being measured.

The values above are taken from PMC8528861, “Structural and functional analysis of target recognition by the lymphocyte adaptor protein LNK” (Nature Communications, 2021).
